Laboratory results as given in PubChem BioAssay (NCI).
Values joined by “and” are separate entries in the source; they are usually repeats but may differ in a detail not shown here. Equal entries are not always repeated.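 1) Cells in 96-well plates. 2) Compound, 48 h, 5 concentrations. 3) Linear interpolation between surrounding doses. 4) Unreached endpoint = highest concentration. GI50: concentration for 50% inhibition of growth. TGI is the concentration that stops growth completely.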

Experiments:
Test in all cases: NCI anticancer screen, dose series, 48 h
[1] = tested on: A549 NSCLC
[2] = tested on: ACHN renal
[3] = tested on: HCT-15 colon
[4] = tested on: HT29 colon
[5] = tested on: MCF7 breast
[6] = tested on: OVCAR-5 ovarian
[7] = tested on: RPMI-8226 leukemia
[8] = tested on: SF-295 CNS
[9] = tested on: SK-MEL-5 melanoma
[10] = tested on: T-47D breast

SMILES	GI50 [1]	TGI [1]	GI50 [2]	TGI [2]	GI50 [3]	TGI [3]	GI50 [4]	TGI [4]	GI50 [5]	TGI [5]	GI50 [6]	TGI [6]	GI50 [7]	TGI [7]	GI50 [8]	TGI [8]	GI50 [9]	TGI [9]	GI50 [10]	TGI [10]
C[C@]12CC[C@@H]3c4ccc(O)cc4CC[C@H]3[C@@H]1CC[C@@H]2NS(=O)(=O)c1cccc(F)c1	3.13 µM	12.6 µM	2.71 µM	8.66 µM	2.8 µM	11.3 µM	3.2 µM	10.1 µM	3.49 µM	11 µM	4.35 µM	16.3 µM	3.65 µM	19.6 µM	3.29 µM	11.9 µM	1.66 µM	3.15 µM	3.82 µM	14.8 µM
N=C(N)SCc1cccc(-c2nc3ccccc3c(=O)o2)c1	–	> 100 µM	–	> 100 µM	–	> 100 µM	–	> 100 µM	–	> 100 µM	–	> 100 µM	–	> 100 µM	–	> 100 µM	–	> 100 µM	–	> 100 µM
O=C(Nc1ccc(-c2ccccc2)cc1)C1CCN(S(=O)(=O)c2ccccc2Cl)CC1	29.5 µM	> 100 µM	21.9 µM	57 µM	77.4 µM	> 100 µM	> 100 µM	> 100 µM	41.2 µM	> 100 µM	50 µM	> 100 µM	42 µM	> 100 µM	24.4 µM	> 100 µM	69.3 µM	> 100 µM	> 100 µM	> 100 µM
CC1CCC(=O)C(C(=O)CC2CC(=O)NC(=O)C2)C1 (centres undefined)	–	> 100 µM	–	> 100 µM	–	> 100 µM	–	> 100 µM	–	> 100 µM	–	> 100 µM	–	> 100 µM	–	> 100 µM	–	> 100 µM	–	> 100 µM
C=C1C(=O)O[C@H]2[C@H]1CC/C(COC(=O)c1ccc(Cl)nc1)=C\CC[C@@]1(C)O[C@@H]21	11.3 µM	26.2 µM	1.68 µM	3.6 µM	1.36 µM	3.39 µM	1.66 µM	4.11 µM	1.08 µM	3.72 µM	2.95 µM	9.4 µM	1.58 µM	4.87 µM	10.9 µM	22.9 µM	3.23 µM	11.1 µM	1.79 µM	5.3 µM
Cn1cc(C2=C(c3cn(CCCCCN)c4ccccc34)C(=O)NC2=O)c2ccccc21	10.1 µM	> 25 µM	10.9 µM	> 25 µM	7.01 µM	> 25 µM	7.39 µM	> 22.8 µM	5.51 µM	> 18 µM	> 25 µM	> 25 µM	9.24 µM	> 25 µM	9.37 µM	> 20.1 µM	7.46 µM	> 19.7 µM	6.23 µM	21.6 µM
CCOC(=O)CNC(=O)c1ccccc1Nc1ccnc(C(F)(F)F)c1	> 53.5 µM	> 100 µM	> 58.2 µM	> 100 µM	> 54.6 µM	> 100 µM	44.4 µM	> 100 µM	38.8 µM	> 89.1 µM	> 51.1 µM	> 100 µM	12.7 µM	35.1 µM	54.4 µM	> 100 µM	14.8 µM	40.4 µM	41.9 µM	> 100 µM
COc1cc2ncn(-c3cc(OCCc4ccccc4)c(C(N)=O)s3)c2cc1OC	> 25 µM	> 25 µM	> 25 µM	> 25 µM	> 25 µM	> 25 µM	13.6 µM	> 25 µM	10.1 µM	> 25 µM	> 25 µM	> 25 µM	> 25 µM	> 25 µM	> 25 µM	> 25 µM	11.3 µM	> 25 µM	> 25 µM	> 25 µM
C=CCSS/C=C/CS(=O)CC=C (centres undefined)	–	> 100 µM	–	> 100 µM	–	> 100 µM	–	> 74.6 µM	–	> 100 µM	–	98.8 µM	–	48.8 µM	–	> 100 µM	–	> 100 µM	–	> 100 µM
CC(C)N=c1cc2n(-c3ccc(Cl)cc3)c3ccccc3nc-2cc1Nc1ccc(Cl)cc1	1.85 µM and 1.84 µM	–	1.18 µM and 2.18 µM	> 100 µM	0.54 µM and 1.61 µM	> 100 µM	0.537 µM and 0.827 µM	> 50 µM and 6.27 µM	1.28 µM and 2.36 µM	> 100 µM	2.15 µM	> 100 µM	0.821 µM	2.62 µM	1.36 µM	> 50 µM	0.634 µM and 1.28 µM	1.26 µM and 2.59 µM	2.37 µM	> 50 µM
Cc1cc(N/N=C/c2nc(-c3ccc(Br)cc3)oc2C)c2cc(Br)ccc2n1	2.2 µM	5.2 µM	2.86 µM	8.05 µM	2.88 µM	10.2 µM	3.14 µM	13.7 µM	1.68 µM	3.74 µM	10.7 µM	22.5 µM	2.37 µM	6.39 µM	17.3 µM	32.6 µM	13.4 µM	26.1 µM	1.88 µM	3.9 µM
Nc1nc(SN=Nc2ccc(S(N)(=O)=O)cc2)c2[nH]cnc2n1	3.06 µM	> 100 µM	1.6 µM	> 100 µM	0.563 µM	> 100 µM	0.79 µM	> 100 µM	0.289 µM	> 100 µM	0.629 µM	> 100 µM	0.283 µM	3.33 µM	0.363 µM	> 100 µM	1.26 µM	5.97 µM	0.536 µM	> 100 µM
CCc1ccccc1NC(=O)c1sc2nc3c(cc2c1N)C(=O)CCC3	0.656 µM	> 100 µM	1.17 µM	> 100 µM	0.406 µM	> 100 µM	0.372 µM	29.5 µM	0.328 µM	> 100 µM	1.96 µM	> 100 µM	0.782 µM	> 30.9 µM	0.283 µM	> 88 µM	0.329 µM	> 100 µM	0.533 µM	> 79.8 µM
